Data as given in US20150259371A1, “METHODS AND COMPOUNDS FOR INHIBITING GLYCOSYLTRANSFERASES” (SIMON FRASER UNIVERSITY, priority 2010, published 2015).
Entries after “also recorded” stand apart in the source; their conditions may differ.

How the values were obtained:
[1] = tested on: EMEG32 heterozygous mouse embryonic fibroblast cells; assay: Cell proliferation growth curves over 5 days and western blot, EMEG32 heterozygous fibroblasts; assay type: cell-based; settings: 50 μM, 5 days
Description: (A) Cell proliferation curves over the course of 5 days for CHO cells following no (circles), 50 μM Ac-GlcNAc (squares) or 50 μM Ac-5SGlcNAc (triangles) treatment. The error bars indicate the deviation from the mean for triplicate measurements. […] Upper panel, probed with anti-O-GlcNAc antibody (CTD110.6); lower panel, probed with anti-actin antibody. (B) Cell proliferation curves over the course of 5 days for EMEG heterozygous mouse embryonic fibroblast cells following no (circles), 50 μM Ac-GlcNAc (squares) or 50 μM Ac-5SGlcNAc (triangles) treatment. The error bars indicate the deviation from the mean for triplicate measurements. […] Upper panel, probed with anti-O-GlcNAc antibody (CTD110.6); lower panel, probed with anti-actin antibody. (C) Western blots of CHO cell lysates following no (C) or Ac-5SGlcNAc administration at 50 μM for 4 days. Probed with (from top to bottom) anti-Spl antibody, anti O-GlcNAc (CTD110.6) antibody and anti-actin antibody. Full blot of the anti-Sp 1 is shown in panel (d). (D) Western blots of CHO cell lysates following no (C) or Ac-5SGlcNAc administration at 50 μM for 4 days. The full blot probed with anti-Spl antibody is shown. (E) Western blots of COS-7 cell lysates following no (C) or 50 μM Ac-5SGlcNAc treatment for 24 h. Following treatment, the media was replaced with no inhibitor, and cells were harvested at the time points indicated (between 0 and 24 h). Upper panel, probed with anti-O-GlcNAc antibody (CTD110.6); lower panel, probed with anti-actin antibody.
Cellular responses to Ac-5SGlcNAc (9) treatment and consequent decreases in O-GlcNAc levels were evaluated. […] We quantitatively evaluated cell proliferation and established growth curves over the course of 5 days in both CHO and EMEG32 heterozygous mouse embryonic fibroblast cells treated with 50 μM Ac-5SGlcNAc (9), 50 μM Ac-GlcNAc (G), or vehicle (FIGS. 5A-B).

[2] = tested on: O-GlcNAc levels in COS-7 cells; assay: Western blot of O-GlcNAc levels (CTD110.6) in treated COS-7 cells; assay type: cell-based, African green monkey
Description: Cell culture: Cells were grown in an incubator at 37° C. and 5% CO2 atmosphere. Media and serum were purchased from Invitrogen. COS-7 cells were cultured in Dulbecco's modified Eagle's medium (DMEM) with 5% fetal bovine serum (FBS), and were typically 80-100% confluent prior to experimentation. HepG2, SK-N-SH, and EMEG32^−/− cells were cultured in Dulbecco's modified Eagle's medium (DMEM) with 5% fetal bovine serum (FBS), CHO cells in DMEMF-12 with 5% FBS and PC12 cells in DMEM with 5% FBS and 5% horse serum. Prior to experimentation, PC12 cells were plated at a density of 3-4×10^5 cells10 cm plate, which had been pre-treated with 5 μgcm^2 rat tail collagen (BD Biosciences). Cells were differentiated in DMEM containing 1% horse serum, in the presence of 2.5S mouse nerve growth factor (Chemicon) at a final concentration of 25 ng mL^−1, for 4-5 days prior to treatment. Other cell lines were 80-100% confluent prior to treatment. Following treatment with (Ac-)5SGlcNAc, using various conditions, cells were washed gently with PBS, lysed in SDS loading buffer and boiled for 10 minutes. Mouse hybridoma cells (obtained from the Developmental Studies Hybridoma Bank; antibody E7 for (:1-tubulin) were cultured in RPMI40 with 10% FBS. Prior to treatment with Ac-5SGlcNAc, hybridoma cells were cultured for 2 days in RPMI40 with 5% FBS, and during treatment in RPMI40 with no serum. Cells were collected, centrifuged (800 x g, 5 min) and the supernatant removed. Cells were washed with PBS, centrifuged, the pellet resuspended in SDS loading buffer and boiled. The supernatant after centrifugation, which contained the IgG antibody produced by the cells, was used for immunoprecipitation (see below for details).
Westernlectin blots: Samples were run on 10% SDS polyacrylamide gels and transferred onto nitrocellulose membranes (Biorad). Membranes were blocked for 1 h in PBS containing 0.1% Tween-20 (PBS-T) containing 1% (unless otherwise stated) bovine serum albumin (BSA), and probed with the appropriate primary antibody or lectin in 1% BSA in PBS-T overnight at 4° C. Blots were washed for 1 hr with PBS-T, and blocked for a further 30 min with 1% BSA in PBS-T at room temperature. They were then probed with the appropriate horseradish peroxidise (HRP)-conjugated secondary antibodyprobe in 1% BSA in PBS-T at room temperature for 1 h, followed by washing in PBS-T for 1 h. Blots were developed with SuperSignal West Pico Chemiluminescent Substrate (Pierce) and exposed to CL-XPosure film (Pierce). Densitometry was performed using ImageQuant 5.2 (Molecular Dynamics), and fits to the data were made using GRAFIT^41.
Antibodieslectins: O-GlcNAc levels were assessed primarily using CTD110.6 (Covance), but RL2 (Abcam) and HGAC85 (Abcam) were also tested. Actin was probed using JLA20 (Developmental Studies Hybridoma Bank). OGA levels were assessed using a polyclonal anti-OGA antibody which was a kind gift from Dr. Gerald Hart and OGT levels using H-300 (Santa Cruz Biotechnology). nup62 was probed using mAb 414 (Covance). Secondary antibodies employed (HRP-conjugated goat anti-mouse IgM, goat anti-mouse IgG, goat anti-chicken IgY and goat anti-rabbit IgG) were obtained from Santa Cruz Biotechnology. Biotinylated-ConA, PHA-L, SNA and MAA were purchased from EY Laboratories, and biotinylated-GNA from Vector Laboratories. HRP-conjugated streptavidin (Pierce) was used as a probe for the biotinylated lectins.
Analogues (9, 10, 17-41) were tested in COS-7 cells, dosed at a final concentration of 50 μM in DMSO for 24 h. Following treatment, cells were washed with PBS, harvested into SDS-PAGE loading buffer and analyzed by western blot using standard procedures; blots were probed with the anti-O-GlcNAc antibody (CTD 110.6).

[3] = tested on: O-GlcNAc levels in different cell lines (COS-7, CHO, SK-N-SH, HepG2, PC12, mouse hybridoma, EMEG32-/-); assay: Western blot of O-GlcNAc levels in various cell lines; assay type: cell-based; settings: 50 μM (100 μM for PC12), 24 h; listed as Ac-5SGlcNAc
Description: FIG. 2L. Western blots of cell lysates from different cell lines following no (C), Ac-GlcNAc (G) or Ac-5SGlcNAc (5SG) administration at 50 μM (or 100 μM for PC12 cells) for 24 h. Upper panel, probed with anti-O-GlcNAc antibody (CTD110.6); lower panel, anti-actin antibody. Cell lines used: COS-7 (African green monkey kidney cell line), CHO (Chinese hamster ovary cell line), SK-N-SH (human neuroblastoma cell line), HepG2 (human liver carcinoma cell line), PC12 (rat adrenal medulla pheochromocytoma cell line, which terminally differentiate upon nerve growth factor treatment), mouse hybridoma cell line and EMEG32^−/− (mouse embryonic fibroblasts deficient in glucosamine-6-phosphate acetyltransferase).
Cell culture: Cells were grown in an incubator at 37° C. and 5% CO2 atmosphere. Media and serum were purchased from Invitrogen. COS-7 cells were cultured in Dulbecco's modified Eagle's medium (DMEM) with 5% fetal bovine serum (FBS), and were typically 80-100% confluent prior to experimentation. HepG2, SK-N-SH, and EMEG32^−/− cells were cultured in Dulbecco's modified Eagle's medium (DMEM) with 5% fetal bovine serum (FBS), CHO cells in DMEMF-12 with 5% FBS and PC12 cells in DMEM with 5% FBS and 5% horse serum. Prior to experimentation, PC12 cells were plated at a density of 3-4×10^5 cells10 cm plate, which had been pre-treated with 5 μgcm^2 rat tail collagen (BD Biosciences). […]

CC(=O)NC1C(OC(C)=O)SC(COC(C)=O)C(OC(C)=O)C1OC(C)=O [Compound 9, N-Acetyl-1,3,4,6-tetra-O-acetyl-α-D-5-thio-glucosamine]
growth rate ([1]; EMEG32 heterozygotes): indistinguishable but were both lower than vehicle treated cells
O-GlcNAc levels at last time point of growth curve ([1]; EMEG heterozygous cells): O-GlcNAc levels are still significantly decreased in cells treated with Ac-5SGlcNAc
O-GlcNAc levels on dosing for 5 days ([2]; 50 μM, 5 days): O-GlcNAc levels dropped in the first day and remained low
O-GlcNAc levels, time course ([2]; 50 μM, hours, listed as Ac-5SGlcNAc): almost no O-GlcNAc being detectable after 24 hours; also recorded: O-GlcNAc levels diminish to a low level by 24 h
effect on O-GlcNAc levels, dose response ([2]; 24 hours): decreased O-GlcNAc levels in a dose-dependent fashion
EC50 ([2]; Chlorocebus sabaeus, 24 h, densitometry of western blot, read-out: EC50 for reduction of O-GlcNAc levels): 5 µM
time for O-GlcNAc to return to basal levels after change to media without compound ([2]; after 50 μM for 24 h): ≤ 24 h
O-GlcNAc levels in the cell lines tested [3]: Various other cell lines showed equivalent responses; also recorded: near complete loss of O-GlcNAc in the cell lines tested
